Where a name gives a salt, the structure may show the parent alone.
Key:
Bcl-2 protein = Bcl-2 protein (histag-Bcl-2, UniProtKB P10415) (Homo sapiens (Human), UniProt P10415); assay: Inhibition of Bcl-2 by the fluorescence polarisation technique; assay type: binding; conditions: incubation for 2 hours, read-out: IC50 (nM) Bcl-2 FP
In short: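 Fluorescence polarisation competition: His-tagged Bcl-2 (2.50×10^−8 M final) with fluorescein-labelled peptide (1.00×10^−8 M final) in 10 mM Hepes, 150 mM NaCl, 0.05% Tween20, pH 7.4. Increasing compound concentrations were added. Polarisation was read after 2 h incubation.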

[1] = tested on: RS4;11 leukaemia tumour line; assay: In vitro cytotoxicity (Microculture Tetrazolium Assay); assay type: cell-based; conditions: Homo sapiens, RS4-11, 48 h, RS4;11 cells, exposed for 48 hours, cell viability; read-out: IC50 (nM) MTT RS4;11
Method: The cytotoxicity studies were carried out on the RS4;11 leukaemia tumour line.
The cells are distributed onto microplates and exposed to the test compounds for 48 hours.
The cell viability is then quantified by a colorimetric assay, the Microculture Tetrazolium Assay (Cancer Res., 1987, 47, 939-942).

Sequence of Bcl-2 protein (P10415 whole entry): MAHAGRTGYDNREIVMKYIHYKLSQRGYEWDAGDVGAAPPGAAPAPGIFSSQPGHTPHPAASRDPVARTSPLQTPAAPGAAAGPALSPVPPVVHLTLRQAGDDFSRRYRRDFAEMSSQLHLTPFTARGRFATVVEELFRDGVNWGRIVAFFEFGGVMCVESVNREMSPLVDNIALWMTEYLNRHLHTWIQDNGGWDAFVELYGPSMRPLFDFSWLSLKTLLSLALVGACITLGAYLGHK

Compound | IC50 (Bcl-2 protein) | IC50 [1]
Cc1ccc(N(C(=O)c2cc(-c3cc4c(cc3C(=O)N3Cc5ccccc5C[C@H]3CN3CCOCC3)OCO4)n(C)c2C)c2ccc(O)cc2)cc1F [Example 13, N-(3-Fluoro-4-methylphenyl)-N-(4-hydroxyphenyl)-1,2-dimethyl-5-(6-{[(3S)-3-(morpholin-4-ylmethyl)-3,4-dihydroisoquinolin-2(1H)-yl]carbonyl}-1,3-benzodioxol-5-yl)-1H-pyrrole-3-carboxamide hydrochloride] | 4.4 nM | 19.8 nM
Cc1c(C(=O)N(c2ccc(O)cc2)c2cnc3c(ccn3C)c2)cc(-c2cc(F)ccc2C(=O)N2Cc3ccccc3C[C@H]2CN2CCOCC2)n1C [Example 385, 5-(5-Fluoro-2-{[(3S)-3-(morpholin-4-ylmethyl)-3,4-dihydroisoquinolin-2(1H)-yl]carbonyl}phenyl)-N-(4-hydroxyphenyl)-1,2-dimethyl-N-(1-methyl-1H-pyrrolo[2,3-b]pyridin-5-yl)-1H-pyrrole-3-carboxamide hydrochloride] | 5.7 nM | 28.7 nM
COc1cc(C(=O)N2Cc3ccccc3C[C@H]2CN2CCOCC2)c(-c2cc(C(=O)N(c3ccc(O)cc3)c3cnc4c(ccn4C)c3)c(C)n2C)cc1F [Example 209, 5-(5-Fluoro-4-methoxy-2-{[(3S)-3-(morpholin-4-ylmethyl)-3,4-dihydroisoquinolin-2(1H)-yl]carbonyl}phenyl)-N-(4-hydroxyphenyl)-1,2-dimethyl-N-(1-methyl-1H-pyrrolo[2,3-b]pyridin-5-yl)-1H-pyrrole-3-carboxamide hydrochloride] | 7.4 nM | 25.4 nM
COCCn1c(-c2cc3c(cc2C(=O)N2Cc4ccccc4C[C@H]2CN2CCOCC2)OCO3)cc(C(=O)N(c2ccc(O)cc2)c2cnn(C)c2)c1C [Example 93, N-(4-Hydroxyphenyl)-1-(2-methoxyethyl)-2-methyl-N-(1-methyl-1H-pyrazol-4-yl)-5-(6-{[(3S)-3-(morpholin-4-ylmethyl)-3,4-dihydroisoquinolin-2(1H)-yl]carbonyl}-1,3-benzodioxol-5-yl)-1H-pyrrole-3-carboxamide hydrochloride] | 19.7 nM | 368 nM
Cc1c(N(C(=O)c2cc(-c3cc(F)ccc3C(=O)N3Cc4ccccc4C[C@H]3CN3CCOCC3)n(C)c2C)c2ccc(O)cc2)cc(C#N)n1C [Example 421, N-(5-Cyano-1,2-dimethyl-1H-pyrrol-3-yl)-5-(5-fluoro-2-{[(3S)-3-(morpholin-4-ylmethyl)-3,4-dihydroisoquinolin-2(1H)-yl]carbonyl}phenyl)-N-(4-hydroxyphenyl)-1,2-dimethyl-1H-pyrrole-3-carboxamide hydrochloride] | 2.5 nM | 3.73 nM
Cc1c(C(=O)N(c2ccccc2)c2cnc3c(ccn3C)c2)cc(-c2cc3c(cc2C(=O)N2Cc4ccccc4C[C@H]2CN2CCOCC2)OCO3)n1C [Example 65, 1,2-Dimethyl-N-(1-methyl-1H-pyrrolo[2,3-b]pyridin-5-yl)-5-(6-{[(3S)-3-(morpholin-4-ylmethyl)-3,4-dihydroisoquinolin-2(1H)-yl]carbonyl}-1,3-benzodioxol-5-yl)-N-phenyl-1H-pyrrole-3-carboxamide hydrochloride] | 21.9 nM | 113 nM
COc1ccc(N(C(=O)c2cc(-c3cc(Cl)ccc3C(=O)N3Cc4ccccc4C[C@H]3CN3CCOCC3)n(C)c2C)c2ccc(O)cc2)cc1C#N [Example 395, 5-(5-Chloro-2-{[(3S)-3-(morpholin-4-ylmethyl)-3,4-dihydroisoquinolin-2(1H)-yl]carbonyl}phenyl)-N-(3-cyano-4-methoxyphenyl)-N-(4-hydroxyphenyl)-1,2-dimethyl-1H-pyrrole-3-carboxamide hydrochloride] | 3.5 nM | 7.57 nM
Cc1c(C(=O)N(C)c2ccc(O)cc2)cc(-c2cc(CCNC(=O)NCc3ccccc3)ccc2C(=O)N2Cc3ccccc3C[C@H]2C)n1C [Example 56, 5-(5-{2-[(Benzylcarbamoyl)amino]ethyl}-2-{[(3R)-3-methyl-3,4-dihydroisoquinolin-2(1H)-yl]carbonyl}phenyl)-N-(4-hydroxyphenyl)-N,1,2-trimethyl-1H-pyrrole-3-carboxamide] | 75 nM | > 600 nM
COc1ccc(C(=O)N2Cc3ccccc3C[C@H]2C)c(-c2cc(C(=O)N(c3ccc(O)cc3)c3cnn(C)c3)c(C)n2C)c1 [Example 31, N-(4-Hydroxyphenyl)-5-(5-methoxy-2-{[(3R)-3-methyl-3,4-dihydroisoquinolin-2(1H)-yl]carbonyl}phenyl)-1,2-dimethyl-N-(1-methyl-1H-pyrazol-4-yl)-1H-pyrrole-3-carboxamide] | 7.2 nM | 89.3 nM
COc1ncc(N(C(=O)c2cc(-c3cc4c(cc3C(=O)N3Cc5ccccc5C[C@H]3C)OCO4)n(C)c2C)c2ccc(O)cc2)cn1 [Example 48, N-(4-Hydroxyphenyl)-N-(2-methoxypyrimidin-5-yl)-1,2-dimethyl-5-(6-{[(3R)-3-methyl-3,4-dihydroisoquinolin-2(1H)-yl]carbonyl}-1,3-benzodioxol-5-yl)-1H-pyrrole-3-carboxamide] | 4.4 nM | 14.9 nM
Cc1c(C(=O)N(c2ccc(O)cc2)c2ccc3c(ccn3C)n2)cc(-c2cc(Cl)ccc2C(=O)N2Cc3ccccc3C[C@H]2CN2CCOCC2)n1C [Example 391, 5-(5-Chloro-2-{[(3S)-3-(morpholin-4-ylmethyl)-3,4-dihydroisoquinolin-2(1H)-yl]carbonyl}phenyl)-N-(4-hydroxyphenyl)-1,2-dimethyl-N-(1-methyl-1H-pyrrolo[3,2-b]pyridin-5-yl)-1H-pyrrole-3-carboxamide hydrochloride] | 30.3 nM | 255 nM
Cc1c(C(=O)N(c2ccc(O)cc2)c2cnn(C3CCOC3)c2)cc(-c2cc(Cl)ccc2C(=O)N2Cc3ccccc3C[C@H]2CN2CCOCC2)n1C (stereo partly drawn) [Example 127, 5-(5-Chloro-2-{[(3S)-3-(morpholin-4-ylmethyl)-3,4-dihydroisoquinolin-2(1H)-yl]carbonyl}phenyl)-N-(4-hydroxyphenyl)-1,2-dimethyl-N-[1-(tetrahydrofuran-3-yl)-1H-pyrazol-4-yl]-1H-pyrrole-3-carboxamide hydrochloride] | 5.3 nM | 111 nM
Cc1c(C(=O)N(c2ccncc2)c2ccc(O)cc2)cc(-c2cc3c(cc2C(=O)N2Cc4ccccc4C[C@H]2CN2CCOCC2)OCO3)n1C [Example 73, N-(4-Hydroxyphenyl)-1,2-dimethyl-5-(6-{[(3S)-3-(morpholin-4-ylmethyl)-3,4-dihydroisoquinolin-2(1H)-yl]carbonyl}-1,3-benzodioxol-5-yl)-N-(pyridin-4-yl)-1H-pyrrole-3-carboxamide dihydrochloride] | 8 nM | 42.6 nM
COCCc1c(C(=O)N(c2ccc(O)cc2)c2cnc3c(c2)CCN3C)cc(-c2cc3c(cc2C(=O)N2Cc4ccccc4C[C@H]2CN2CCOCC2)OCO3)n1C [Example 358, N-(4-Hydroxyphenyl)-2-(2-methoxyethyl)-1-methyl-N-(1-methyl-2,3-dihydro-1H-pyrrolo[2,3-b]pyridin-5-yl)-5-(6-{[(3S)-3-(morpholin-4-ylmethyl)-3,4-dihydroisoquinolin-2(1H)-yl]carbonyl}-1,3-benzodioxol-5-yl)-1H-pyrrole-3-carboxamide hydrochloride] | 14.8 nM | 165 nM
Cc1c(C(=O)N(c2ccccc2)c2ccc(O)cc2)cc(-c2cc(Cl)ccc2C(=O)N2CCc3ccccc3C2)n1C [Example 467, 5-(5-Chloro-2-{[3,4-dihydroisoquinolin-2(1H)-yl]carbonyl}phenyl)-N-(4-hydroxyphenyl)-1,2-dimethyl-N-phenyl-1H-pyrrole-3-carboxamide] | 19.2 nM | 188 nM
Cc1c(C(=O)N(c2ccc(O)cc2)c2cc(C#N)n(C)c2)cc(-c2ccccc2C(=O)N2Cc3ccccc3C[C@H]2CN2CCOCC2)n1C [Example 433, N-(5-Cyano-1-methyl-1H-pyrrol-3-yl)-N-(4-hydroxyphenyl)-1,2-dimethyl-5-(2-{[(3S)-3-(morpholin-4-ylmethyl)-3,4-dihydroisoquinolin-2(1H)-yl]carbonyl}phenyl)-1H-pyrrole-3-carboxamide hydrochloride] | 2.6 nM | 48.2 nM
Cc1c(C(=O)N(c2ccc(O)cc2)c2cnn(C)c2)cc(-c2cc3c(cc2C(=O)N2Cc4ccccc4C[C@H]2CN2CCOCC2)OCO3)n1CC(F)F [Example 95, 1-(2,2-Difluoroethyl)-N-(4-hydroxyphenyl)-2-methyl-N-(1-methyl-1H-pyrazol-4-yl)-5-(6-{[(3S)-3-(morpholin-4-ylmethyl)-3,4-dihydroisoquinolin-2(1H)-yl]carbonyl}-1,3-benzodioxol-5-yl)-1H-pyrrole-3-carboxamide hydrochloride] | 7 nM | 174 nM
COc1ncc(N(C(=O)c2cc(-c3cc(F)c(OC)cc3C(=O)N3Cc4ccccc4C[C@H]3CN3CCOCC3)n(C)c2C)c2ccc(O)cc2)cn1 [Example 439, 5-(5-Fluoro-4-methoxy-2-{[(3S)-3-(morpholin-4-ylmethyl)-3,4-dihydroisoquinolin-2(1H)-yl]carbonyl}phenyl)-N-(4-hydroxyphenyl)-N-(2-methoxypyrimidin-5-yl)-1,2-dimethyl-1H-pyrrole-3-carboxamide hydrochloride] | 6.1 nM | 329 nM
COc1ncc(N(C(=O)c2cc(-c3cc(Cl)ccc3C(=O)N3Cc4ccccc4C[C@H]3CN3CCOCC3)n(C)c2C)c2ccc(O)cc2)cn1 [Example 397, 5-(5-Chloro-2-{[(3S)-3-(morpholin-4-ylmethyl)-3,4-dihydroisoquinolin-2(1H)-yl]carbonyl}phenyl)-N-(4-hydroxyphenyl)-N-(2-methoxypyrimidin-5-yl)-1,2-dimethyl-1H-pyrrole-3-carboxamide] | 4.5 nM | 37.1 nM

From patent US9108983B2, “Pyrrole compounds, a process for their preparation and pharmaceutical compositions containing them” (LES LABORATOIRES SERVIER, priority 2013, dated 2015)
